Data: patent US20160251342A1, “ALDEHYDE DERIVATIVE OF SUBSTITUTED OXAZOLIDINONES” (WANBURY LTD., priority 2012, published 2016)

Key:
[1] = In vitro stability in mouse plasma (LC-MS); format: in vitro ADME; conditions: for % Parent remaining (Mouse): rivaroxaban itself incubated
Description: The final concentration of the test compound in the assay is 5 micromolar. […] C. The 100 microlitres of aliquot at time point was removed and diluted with ice cold acetonitrile containing IS (200 µL) to stop the reactions. Samples are centrifuged at 10,000 RPM for 5 minutes to precipitate proteins. Supernatants are transferred to micro centrifuge tubes and stored at −20° C. for analysis of LC/MS/MS. The percent parent remaining of the test substance is calculated as ratio of peak area at each time point to peak area ratio at zero min, multiplied by 100.
API 4000, ESI Agilent 1100 column: Gemini Nx 100 mm×4.6 mm 5.μ; column temperature: 30° C.; eluent A: 0.1% formic acid in water, eluent B: acetonitrile; gradient: 0-2.5 min 95% A, 5% B; 2.5-2.6 min 5% A, 95% B; 2.6-4.2 min 95% A, 5% B; flow rate: 0.8 ml/min; ESI. Q1:464.098, Q3:144.255

[2] = In vitro liver microsomal stability assay, human; format: in vitro ADME; conditions: human microsomes; for % Parent remaning (Human): rivaroxaban itself incubated
Description: (§1) Liver microsomal stability assays are conducted at 1 mg per mL liver microsome protein with an NADPH in phosphate buffer (100 mM, pH 7.4). Test compounds (compound of formula B of the invention) are prepared as solutions in 20% methanol-water and added to the assay mixture (final assay concentration 1 μM) and incubated at 37° C. Aliquots (100 .μ.L) are taken out at times 0, 15, and 30 minutes, and diluted with ice cold acetonitrile containing IS (200 µL) to stop the reactions. Samples are centrifuged at 10,000 RPM for 5 minutes to precipitate proteins. Supernatants are transferred to micro centrifuge tubes and stored at −20° C. for analysis of LC/MS/MS. The percent parent remaining of the test substance is calculated as Ratio of peak area at each time point to peak area ratio at zero min, multiplied by 100. The compound formula (B) is converted to Rivaroxaban in microsomal assay.

[3] = In vitro liver microsomal stability assay, rat; format: in vitro ADME; conditions: rat microsomes; for % Parent remaining (rat): rivaroxaban itself incubated
Description: as §1

[4] = In vitro liver microsomal stability assay, mouse; format: in vitro ADME; conditions: mouse microsomes
Description: as §1

thrombus formation [5] = test: Arteriovenous shunt model (rat); format: in vivo, rats (strain: Wistar); conditions: for ED50: Rattus norvegicus, arteriovenous shunt, read-out: ED-50 to inhibit the thrombus formation
Excerpt: Fasting male rats (strain: Wistar) having a weight of 280-320 g were anaesthetized using a isoflurane/oxygen. Thrombus formation was initiated in an arteriovenous shunt in accordance with the method described by Christopher N. Berry et al., Br. J. Pharmacol. (1994), 113, 1209-1214. To this end, the left jugular vein and the right carotid artery were exposed. The two vessels were connected by an extracorporeal shunt using a 10 cm long Poly Vinyl Chloride tube (.P.V.C.) 9 internal diameter i.d. 0.5 mm), in middle of PVC tubing a 5 cm Scalp vein tube (i.d. 1.5 mm) will be attached which contained a 3 cm long roughened surface nylon thread which will be arranged to form a loop to form a thrombogenic surface. The extracorporeal circulation was maintained for 15 minutes. The shunt was then removed and the nylon thread with the thrombus was weighed immediately. The weight of the nylon thread on its own had been determined before the experiment was started. Before the extracorporeal circulation was set up, The test item [compound formula (B) (Wanxaban)/reference item (Rivaroxaban)/vehicle will be administered to the animals as per routes preferred. Animals were grouped by body weight stratification and randomization (Represented by G1-[…]). The grouping was done one day prior to the experiment initiation.

thrombus formation [6] = test: Arterial thrombosis model (rat); format: in vivo, rats (strain: Wistar); conditions: for ED50: Rattus norvegicus, arterial thrombosis, read-out: ED-50 to inhibit the thrombus formation
Description: Male fasting rats (strain: Wistar) having a weight 280-320 g were anaesthetized using isoflurane/oxygen. The left carotid artery was exposed (about 2 cm). The formation of an arterial thrombus was induced by mechanical injury to the blood vessel in accordance with the method described by K. Meng et al., Naunyn-Schmiedeberg's Arch. Pharmacol. (1977), 301, 115-119. To this end, the exposed carotid artery was clamped from the blood flow, cooled to -20° C. in a metal trough for 2 minutes and, to standardize the size of the thrombi, simultaneously compressed using a weight of 200 g. […] The proximal clamp was removed, and the wound was closed and re-opened after 2 hours to remove the injured section of the vessel. The section of the vessel was opened longitudinally and the thrombus was removed from the injured section of the vessel. The moist weight of the thrombi was determined immediately. […] Animals were grouped by body weight stratification and randomization (Represented by G1-[…]). The grouping was done one day prior to the experiment initiation.

thrombus formation [7] = test: Venous thrombosis model (rat); format: in vivo, rats (strain: Wistar); conditions: for ED50: Rattus norvegicus, venous thrombosis, per oral, read-out: ED-50 to inhibit the thrombus formation; for Mean thrombus weight (mg) (±SEM): per oral 120 minutes before induction, vehicle 4.36 ± 0.58
Description: Male fasting rats (strain: Wistar) having a weight 280-320 g were anaesthetized using isoflurane/oxygen. The left jugular vein was exposed (about 2 cm). The formation of a venous thrombus was induced by mechanical injury to the blood vessel in accordance with the method described by K. Meng, et al., Naunyn-Schmiedeberg's Arch. Pharmacol. (1977), 301, 115-119. To this end, the jugular vein was clamped from the blood flow, cooled to -12° C. in a metal trough for 2 minutes and, to standardize the size of the thrombi, simultaneously compressed using a weight of 200 g. The blood flow was re-opened and the wound was closed. After 4 hours, the wound was re-opened to remove the thrombi from the injured sections of the vessel. The moist weight of the thrombi was determined immediately. […] Animals were grouped by body weight stratification and randomization (Represented by G12-[…]). The grouping was done one day prior to the experiment initiation.

[8] = intravenous, Dose 0.5, vehicle 27.26 ± 1.23
[9] = intravenous, Dose 1, vehicle 27.26 ± 1.23
[10] = intravenous, Dose 2, vehicle 27.26 ± 1.23
[11] = intravenous, Dose 3, vehicle 27.26 ± 1.23
[12] = intravenous, Dose 4, vehicle 27.26 ± 1.23
[13] = per oral, Dose 2.5, vehicle 26.95 ± 1.23
[14] = per oral, Dose 5, vehicle 26.95 ± 1.23
[15] = per oral, Dose 10, vehicle 26.95 ± 1.23
[16] = per oral, Dose 15, vehicle 26.95 ± 1.23
[17] = per oral, Dose 20, vehicle 26.95 ± 1.23
[18] = intravenous 5 minutes before induction, Dose 0.5, vehicle 2.08 ± 0.47
[19] = intravenous 5 minutes before induction, Dose 1, vehicle 2.08 ± 0.47
[20] = intravenous 5 minutes before induction, Dose 2, vehicle 2.08 ± 0.47
[21] = intravenous 5 minutes before induction, Dose 3, vehicle 2.08 ± 0.47
[22] = intravenous 5 minutes before induction, Dose 4, vehicle 2.08 ± 0.47
[23] = per oral 120 minutes before induction, Dose 2.5, vehicle 1.70 ± 0.39
[24] = per oral 120 minutes before induction, Dose 5.0, vehicle 1.70 ± 0.39
[25] = per oral 120 minutes before induction, Dose 10, vehicle 1.70 ± 0.39
[26] = per oral 120 minutes before induction, Dose 15, vehicle 1.70 ± 0.39
[27] = per oral 120 minutes before induction, Dose 20, vehicle 1.70 ± 0.39

O=CN(C[C@H]1CN(c2ccc(N3CCOCC3=O)cc2)C(=O)O1)C(=O)c1ccc(Cl)s1 [compound formula (B), 5-chloro-N-formyl-N-({(5S)-2-oxo-3-[4-(3-oxomorpholin-4-yl)phenyl]-1,3-oxazolidin-5-yl}methyl)thiophene-2-carboxamide]
Amount of test product detected (conversion to rivaroxaban from zero min) [1]: min. Neglible
Amount of test product detected (metabolised to rivaroxaban from zero min) [2]: Neglible
Amount of test product detected (metabolised to rivaroxaban from zero min) [3]: min. Neglible
Amount of test product detected (metabolised to rivaroxaban from zero min) [4]: min. Neglible
ED50 (thrombus formation [5]; intravenous): 1 mg/kg
ED50 (thrombus formation [5]; per oral): 22.8 mg/kg
Mean thrombus weight (mg) (±SEM) (thrombus formation [5]; [8]): 18.7 ± 1.22 mg
Mean thrombus weight (mg) (±SEM) (thrombus formation [5]; [9]): 13.99 ± 2 mg
Mean thrombus weight (mg) (±SEM) (thrombus formation [5]; [10]): 8.45 ± 0.75 mg
Mean thrombus weight (mg) (±SEM) (thrombus formation [5]; [11]): 5.83 ± 0.31 mg
Mean thrombus weight (mg) (±SEM) (thrombus formation [5]; [12]): 4.81 ± 0.31 mg
Mean thrombus weight (mg) (±SEM) (thrombus formation [5]; [13]): 3.81 ± 1.55 mg
Mean thrombus weight (mg) (±SEM) (thrombus formation [5]; [14]): 1.60 ± 0.10 mg
Mean thrombus weight (mg) (±SEM) (thrombus formation [5]; [15]): 0.66 ± 0.09 mg
Mean thrombus weight (mg) (±SEM) (thrombus formation [5]; [16]): 0.53 ± 0.18 mg
Mean thrombus weight (mg) (±SEM) (thrombus formation [5]; [17]): 0.62 ± 0.16 mg
ED50 (thrombus formation [6]; intravenous): 0.5 mg/kg
ED50 (thrombus formation [6]; per oral): 4 mg/kg
Mean thrombus weight (mg) (±SEM) (thrombus formation [6]; [18]): 1.32 ± 0.17 mg
Mean thrombus weight (mg) (±SEM) (thrombus formation [6]; [19]): 0.60 ± 0.09 mg
Mean thrombus weight (mg) (±SEM) (thrombus formation [6]; [20]): 0.61 ± 0.09 mg
Mean thrombus weight (mg) (±SEM) (thrombus formation [6]; [21]): 0.47 ± 0.05 mg
Mean thrombus weight (mg) (±SEM) (thrombus formation [6]; [22]): 0.36 ± 0.03 mg
Mean thrombus weight (mg) (±SEM) (thrombus formation [6]; [23]): 1.15 ± 0.13 mg
Mean thrombus weight (mg) (±SEM) (thrombus formation [6]; [24]): 0.71 ± 0.04 mg
Mean thrombus weight (mg) (±SEM) (thrombus formation [6]; [25]): 0.78 ± 0.14 mg
Mean thrombus weight (mg) (±SEM) (thrombus formation [6]; [26]): 0.58 ± 0.11 mg
Mean thrombus weight (mg) (±SEM) (thrombus formation [6]; [27]): 0.44 ± 0.04 mg
ED50 (thrombus formation [7]): 1.9 mg/kg
Mean thrombus weight (mg) (±SEM) (thrombus formation [7]; Dose 2.5): 3.81 ± 1.55 mg
Mean thrombus weight (mg) (±SEM) (thrombus formation [7]; Dose 5.0): 1.60 ± 0.10 mg
Mean thrombus weight (mg) (±SEM) (thrombus formation [7]; Dose 10): 0.66 ± 0.09 mg
Mean thrombus weight (mg) (±SEM) (thrombus formation [7]; Dose 15): 0.53 ± 0.18 mg
Mean thrombus weight (mg) (±SEM) (thrombus formation [7]; Dose 20): 0.62 ± 0.16 mg

O=C(NC[C@H]1CN(c2ccc(N3CCOCC3=O)cc2)C(=O)O1)c1ccc(Cl)s1 [Rivaroxaban, 5-chloro-N-({(5S)-2-oxo-3-[4-(3-oxomorpholin-4-yl)phenyl]-1,3-oxazolidin-5-yl}methyl)thiophene-2-carboxamide, reference compound]
Conversion summary: unchanged, stable in plasma ([1]; rivaroxaban itself): unchanged,
% Parent remaining (Mouse) ([1]; 0 min): 100%
% Parent remaining (Mouse) ([1]; 30 min): 100%
% Parent remaining (Mouse) ([1]; 60 min): 100%
% Parent remaning (Human) ([2]; 0 min): 100%
% Parent remaning (Human) ([2]; 15 min): 0.01%
% Parent remaning (Human) ([2]; 30 min): 0.01%
Observation: metabolism ([3]; rivaroxaban itself): High
% Parent remaining (rat) ([3]; 0 min): 100%
% Parent remaining (rat) ([3]; 15 min): 0.01%
% Parent remaining (rat) ([3]; 30 min): 0.02%
Observation: metabolism ([4]; rivaroxaban itself): High
ED50 (thrombus formation [5]; intravenous): 1.7 mg/kg
ED50 (thrombus formation [5]; per oral): 26.2 mg/kg
Mean thrombus weight (mg) (±SEM) (thrombus formation [5]; [8]): 13.95 ± 1.49 mg
Mean thrombus weight (mg) (±SEM) (thrombus formation [5]; [9]): 10.84 ± 1.16 mg
Mean thrombus weight (mg) (±SEM) (thrombus formation [5]; [10]): 10.83 ± 1.11 mg
Mean thrombus weight (mg) (±SEM) (thrombus formation [5]; [11]): 6.92 ± 0.57 mg
Mean thrombus weight (mg) (±SEM) (thrombus formation [5]; [12]): 7.56 ± 0.59 mg
Mean thrombus weight (mg) (±SEM) (thrombus formation [5]; [13]): 19.2 ± 0.2 mg
Mean thrombus weight (mg) (±SEM) (thrombus formation [5]; [14]): 17.26 ± 0.75 mg
Mean thrombus weight (mg) (±SEM) (thrombus formation [5]; [15]): 15.41 ± 1.25 mg
Mean thrombus weight (mg) (±SEM) (thrombus formation [5]; [16]): 16.9 ± 0.49 mg
Mean thrombus weight (mg) (±SEM) (thrombus formation [5]; [17]): 9.7 ± 1.34 mg
ED50 (thrombus formation [6]; intravenous): 2.5 mg/kg
ED50 (thrombus formation [6]; per oral): 24.2 mg/kg
Mean thrombus weight (mg) (±SEM) (thrombus formation [6]; [18]): 1.10 ± 0.32 mg
Mean thrombus weight (mg) (±SEM) (thrombus formation [6]; [19]): 0.62 ± 0.08 mg
Mean thrombus weight (mg) (±SEM) (thrombus formation [6]; [20]): 0.70 ± 0.11 mg
Mean thrombus weight (mg) (±SEM) (thrombus formation [6]; [21]): 0.41 ± 0.05 mg
Mean thrombus weight (mg) (±SEM) (thrombus formation [6]; [22]): 0.34 ± 0.08 mg
Mean thrombus weight (mg) (±SEM) (thrombus formation [6]; [23]): 1.71 ± 0.45 mg
Mean thrombus weight (mg) (±SEM) (thrombus formation [6]; [24]): 1.78 ± 0.66 mg
Mean thrombus weight (mg) (±SEM) (thrombus formation [6]; [25]): 0.84 ± 0.23 mg
Mean thrombus weight (mg) (±SEM) (thrombus formation [6]; [26]): 0.78 ± 0.14 mg
Mean thrombus weight (mg) (±SEM) (thrombus formation [6]; [27]): 0.65 ± 0.10 mg
ED50 (thrombus formation [7]): 12.3 mg/kg
Mean thrombus weight (mg) (±SEM) (thrombus formation [7]; Dose 2.5): 2.93 ± 0.50 mg
Mean thrombus weight (mg) (±SEM) (thrombus formation [7]; Dose 5.0): 2.06 ± 0.73 mg
Mean thrombus weight (mg) (±SEM) (thrombus formation [7]; Dose 10): 2.06 ± 0.53 mg
Mean thrombus weight (mg) (±SEM) (thrombus formation [7]; Dose 15): 1.43 ± 0.46 mg
Mean thrombus weight (mg) (±SEM) (thrombus formation [7]; Dose 20): 1.66 ± 0.74 mg
